According to US20150105252A1, “SUBSTITUTED PYRAZOLES AS HERBICIDES” (E I DU PONT DE NEMOURS AND COMPANY, priority 2013, published 2015):

What was measured:
[1] = tested on: kochia; assay: Test C postemergence; format: in vivo, Kochia scoparia; details: for Plant response rating (scale of 0 to 100 where 0 is no effect and 100 is complete control), Kochia: Postemergence, 31 g ai/ha, visually evaluated after 13 to 15 days; for Kochia plant response rating / Plant response rating, Kochia: postemergence; for Kochia plant response rating: 62 g ai/ha, scale 0 to 100
In short: (§1)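 Scores of 0 (no effect) to 100 (complete control) were assigned by eye after 13–15 days, comparing treated pots with controls. Soil-applied (preemergence) treatments went onto seeds in loam and sand; foliar (postemergence) treatments onto 1- to 4-leaf plants in peat medium.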

[2] = tested on: barnyardgrass; assay: Test B flood; format: in vivo, Echinochloa crus-galli; details: 250 g ai/ha, visual rating on 0 to 100 scale (0 no effect, 100 complete control), 13 to 15 days
In short: (§2)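 Visual ratings (0 = no effect, 100 = complete control) versus untreated controls were taken 13–15 days after treatment of greenhouse plants. Treatment was added to paddy water held at 3 cm depth on 2-leaf-stage seedlings.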

[3] = tested on: velvetleaf; assay: Test A preemergence; format: in vivo, Abutilon theophrasti; details: preemergence
In short: (§3)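 Pre- and postemergence greenhouse test; loam+sand; cpd in non-phytotox. solvent/surfactant; post at 1–2 leaf, 2–10 cm; visual score ~10 d, 0 = none, 100 = complete control.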

[4] = tested on: corn; assay: Test C preemergence; format: in vivo, Zea mays
In short: as §1

[5] = tested on: oilseed rape; assay: Test C postemergence; format: in vivo, Brassica napus; details: for Plant response rating (scale of 0 to 100 where 0 is no effect and 100 is complete control), Oilseed Rape: Postemergence, 31 g ai/ha, visually evaluated after 13 to 15 days; for Oilseed Rape plant response rating / Plant response rating, Oilseed Rape: postemergence; for Oilseed Rape plant response rating: 62 g ai/ha, scale 0 to 100
In short: as §1

[6] = tested on: galium; assay: Test C postemergence; format: in vivo, Galium aparine; details: for Plant response rating (scale of 0 to 100 where 0 is no effect and 100 is complete control), Galium: Postemergence, 31 g ai/ha, visually evaluated after 13 to 15 days; for Galium plant response rating / Plant response rating, Galium: postemergence; for Galium plant response rating: 62 g ai/ha, scale 0 to 100
In short: as §1

[7] = tested on: morningglory; assay: Test A preemergence; format: in vivo, Ipomoea spp.; details: preemergence
In short: as §3

[8] = tested on: crabgrass, large; assay: Test C postemergence; format: in vivo, Digitaria sanguinalis; details: for Plant response rating (scale of 0 to 100 where 0 is no effect and 100 is complete control), Crabgrass, Large: Postemergence, 31 g ai/ha, visually evaluated after 13 to 15 days; for Crabgrass, Large plant response rating / Plant response rating, Crabgrass, Large: postemergence; for Crabgrass, Large plant response rating: 62 g ai/ha, scale 0 to 100
In short: as §1

[9] = tested on: rice; assay: Test B flood; format: in vivo, Oryza sativa; details: 250 g ai/ha, visual rating on 0 to 100 scale (0 no effect, 100 complete control), 13 to 15 days
In short: as §2

[10] = tested on: barnyardgrass; assay: Test A postemergence; format: in vivo, Echinochloa crus-galli
In short: as §3

[11] = tested on: oilseed rape; assay: Test C preemergence; format: in vivo, Brassica napus
In short: as §1

[12] = tested on: corn; assay: Test A preemergence; format: in vivo, Zea mays; details: preemergence
In short: as §3

[13] = tested on: foxtail, giant; assay: Test A postemergence; format: in vivo, Setaria faberii
In short: as §3

[14] = tested on: crabgrass, large; assay: Test A preemergence; format: in vivo, Digitaria sanguinalis; details: preemergence
In short: as §3

[15] = 250 g ai/ha, scale 0 to 100 (0 no effect, 100 complete control)
[16] = 125 g ai/ha, scale 0 to 100, 0 no effect, 100 complete control
[17] = 125 g ai/ha, visual injury, 0 to 100 scale, approx. 10 days
[18] = 500 g ai/ha, visual injury after approx. 10 days, 0 to 100 scale (0 no effect, 100 complete control)
[19] = preemergence, 31 g ai/ha, visual rating, scale 0 to 100 (0 no effect, 100 complete control), 13 to 15 days
[20] = preemergence, 62 g ai/ha, scale 0 to 100 (0 no effect, 100 complete control), 13 to 15 days
[21] = preemergence, 125 g ai/ha, scale 0 to 100, 0 is no effect, 100 is complete control
[22] = Postemergence, 500 g ai/ha, visual rating after approx. 10 days, 0 to 100 scale (0 no effect, 100 complete control)
[23] = postemergence, 125 g ai/ha, about 10 days, visual rating on 0 to 100 scale (0 no effect, 100 complete control)
[24] = preemergence, 125 g ai/ha, 13 to 15 days, scale 0 to 100, 0 = no effect, 100 = complete control
[25] = Postemergence, 500 g ai/ha, 0 to 100 scale (0 no effect, 100 complete control)
[26] = preemergence, 250 g ai/ha, scale 0 to 100, 0 is no effect, 100 is complete control
[27] = 125 g ai/ha, visual injury approx. 10 days after treatment
[28] = Postemergence, 125 g ai/ha, 0 to 100 scale, 0 no effect, 100 complete control

Structure (SMILES) | Plant response rating (scale of 0 to 100 where 0 is no effect and 100 is complete control), Kochia [1] | Kochia plant response rating [1] | Plant response rating, Kochia [1, 15] | Plant response rating, Kochia [1, 16] | Plant response rating, Barnyardgrass [2] | Corn plant response rating [4, 19] | Corn plant response rating [4, 20] | Oilseed Rape plant response rating [5] | Plant response rating, Oilseed Rape [5, 15] | Plant response rating, Oilseed Rape [5, 16] | Plant response rating (scale of 0 to 100 where 0 is no effect and 100 is complete control), Galium [6] | Galium plant response rating [6] | Plant response rating, Galium [6, 15] | Plant response rating, Galium [6, 16] | Plant response rating (scale of 0 to 100 where 0 is no effect and 100 is complete control), Crabgrass, Large [8] | Crabgrass, Large plant response rating [8] | Plant response rating, Crabgrass, Large [8, 15] | Plant response rating, Crabgrass, Large [8, 16] | Plant response rating, Rice [9] | Oilseed Rape plant response rating [11, 20] | also measured
CCc1cc(C(=O)NCC(F)(F)F)nn1Cc1nc(C(F)(F)F)nn1C [Compound 107] | 50 | 85 | 90 | 85 | 40 | 30 | 45 | 60 | 80 | 60 | 50 | 85 | 90 | 90 | 5 | 30 | 85 | 45 | 30 | 100 | Velvetleaf plant response rating [3, 17]: 90; Velvetleaf plant response rating [3, 18]: 100; Plant response rating (scale of 0 to 100), Corn ([4]; Preemergence, 250 g ai/ha): 95; Corn plant response rating [4, 21]: 90; Plant response rating (scale of 0 to 100 where 0 is no effect and 100 is complete control), Oilseed Rape [5]: 5; Morningglory plant response rating [7, 17]: 90; Morningglory plant response rating [7, 18]: 100; Barnyardgrass plant response rating [10, 22]: 90; Barnyardgrass plant response rating [10, 23]: 80; Plant response rating (scale of 0 to 100), Oilseed Rape ([11]; Preemergence, 250 g ai/ha): 100; Oilseed Rape plant response rating [11, 19]: 98; Oilseed Rape plant response rating [11, 21]: 100; Corn plant response rating [12, 17]: 30; Corn plant response rating [12, 18]: 80; Foxtail, Giant plant response rating [13, 22]: 90; Foxtail, Giant plant response rating [13, 23]: 70; Crabgrass, Large plant response rating [14, 17]: 100; Crabgrass, Large plant response rating [14, 18]: 100
CCOc1cc(C(=O)NCC(F)(F)F)nn1Cc1ccnc(OC(F)F)c1 [Compound 128] | 60 | 65 | 90 | 65 | 70 | 15 | 45 | 60 | 90 | 60 | 60 | 65 | 70 | 80 | 5 | 5 | 85 | 30 | 30 | 100 | Plant response rating (scale of 0 to 100), Corn ([4]; Preemergence, 250 g ai/ha): 70; Plant response rating, Corn [4, 24]: 65; Plant response rating (scale of 0 to 100 where 0 is no effect and 100 is complete control), Oilseed Rape [5]: 50; Barnyardgrass plant response rating [10, 25]: 100; Barnyardgrass plant response rating [10, 23]: 100; Plant response rating (scale of 0 to 100), Oilseed Rape ([11]; Preemergence, 250 g ai/ha): 100; Oilseed Rape plant response rating [11, 19]: 100; Plant response rating, Oilseed Rape [11, 24]: 100; Foxtail, Giant plant response rating [13, 25]: 100; Foxtail, Giant plant response rating [13, 23]: 100
CCCNC(=O)c1cc(OCC)n(Cc2ccnc(OC(F)F)c2)n1 [Compound 136] | 90 | 90 | 90 | 90 | 50 | 35 | 70 | 60 | 85 | 70 | 60 | 60 | 80 | 60 | 5 | 5 | 40 | 40 | 35 | 100 | Plant response rating, Corn [4, 24]: 60; Corn plant response rating [4, 26]: 85; Plant response rating (scale of 0 to 100 where 0 is no effect and 100 is complete control), Oilseed Rape [5]: 60; Barnyardgrass plant response rating [10, 25]: 90; Barnyardgrass plant response rating [10, 23]: 70; Oilseed Rape plant response rating [11, 19]: 100; Plant response rating, Oilseed Rape [11, 24]: 100; Oilseed Rape plant response rating [11, 26]: 100; Foxtail, Giant plant response rating [13, 25]: 100; Foxtail, Giant plant response rating [13, 23]: 90
CCCc1cc(C(=O)NC2CC2)nn1Cc1ccnc(OC(F)F)c1 [Compound 205] | 85 | 90 | 95 | 95 | 50 | 70 | 70 | 25 | 50 | 50 | 65 | 80 | 80 | 80 | 5 | 10 | 65 | 45 | 0 | 100 | Plant response rating, Corn [4, 24]: 80; Corn plant response rating [4, 26]: 98; Barnyardgrass plant response rating [10, 25]: 90; Barnyardgrass plant response rating [10, 23]: 80; Oilseed Rape plant response rating [11, 19]: 100; Plant response rating, Oilseed Rape [11, 24]: 100; Oilseed Rape plant response rating [11, 26]: 100; Foxtail, Giant plant response rating [13, 25]: 90; Foxtail, Giant plant response rating [13, 23]: 90
CCc1cc(C(=O)NC2CC2)nn1Cc1ccnc(Br)c1 [Compound 220] | 80 | 85 | 90 | 90 | 0 | – | 0 | 5 | 40 | 30 | 50 | 40 | 80 | 60 | 5 | 5 | 10 | 5 | 15 | 30 | Plant response rating, Corn ([4]; Preemergence, rate head not shown (block before 16 g ai/ha), scale 0 to 100, 100 is complete control): 0; Plant response rating, Corn [4, 24]: 5; Corn plant response rating [4, 26]: 40; Morningglory plant response rating (0 to 100 scale) [7, 27]: 20; Barnyardgrass plant response rating [10, 28]: 80; Barnyardgrass plant response rating [10, 25]: 100; Plant response rating, Oilseed Rape ([11]; Preemergence, rate head not shown (block before 16 g ai/ha), scale 0 to 100): 80; Plant response rating, Oilseed Rape [11, 24]: 85; Oilseed Rape plant response rating [11, 26]: 95; Corn plant response rating (0 to 100 scale) [12, 27]: 0; Corn plant response rating [12, 18]: 90; Foxtail, Giant plant response rating [13, 28]: 90; Foxtail, Giant plant response rating [13, 25]: 100; Crabgrass, Large plant response rating (0 to 100 scale) [14, 27]: 100; Crabgrass, Large plant response rating [14, 18]: 100
